These compounds were tested against cAMP-dependent protein kinase catalytic subunit alpha (Bos taurus, UniProt P00517) (assay: CDK Kinase Inhibition Assay). Settings: 25 °C.

IC50 [µM]	SMILES
> 2	CCn1ccc2ccc3c4[nH]c5ccccc5c4c4c(c3c21)C(=O)NC4=O [18-ethyl-3,13,18-triazahexacyclo[14.7.0.0^{2,10}.0^{4,9}.0^{11,15}.0^{17,21}]tricosa-1(16),2(10),4(9),5,7,11(15),17(21),19,22-nonaene-12,14-dione]
> 20	Cc1cc2ccn(C)c2c2c3c(c4c5ccc(C(F)(F)F)cc5[nH]c4c12)C(=O)NC3=O [18,23-dimethyl-6-(trifluoromethyl)-3,13,18-triazahexacyclo[14.7.0.0^{2,10}.0^{4,9}.0^{11,15}.0^{17,21}]tricosa-1(16),2(10),4(9),5,7,11(15),17(21),19,22-nonaene-12,14-dione]
> 20	Cn1ccc2ccc3c4[nH]c5cccc(CO)c5c4c4c(c3c21)C(=O)NC4=O [8-(hydroxymethyl)-18-methyl-3,13,18-triazahexacyclo[14.7.0.0^{2,10}.0^{4,9}.0^{11,15}.0^{17,21}]tricosa-1(16),2(10),4(9),5,7,11(15),17(21),19,22-nonaene-12,14-dione]
> 20	COc1ccc2c3c4c(c5c(ccc6ccn(C)c65)c3n(CCN3CCC[C@H]3CO)c2c1)C(=O)NC4=O [3-{2-[(2S)-2-(hydroxymethyl)pyrrolidin-1-yl]ethyl}-6-methoxy-18-methyl-3,13,18-triazahexacyclo[14.7.0.0^{2,10}.0^{4,9}.0^{11,15}.0^{17,21}]tricosa-1(16),2(10),4(9),5,7,11(15),17(21),19,22-nonaene-12,14-dione]
> 20	Cn1ccc2ccc3c4[nH]c5cc(C(F)(F)F)ccc5c4c4c(c3c21)C(=O)NC4=O [18-methyl-6-(trifluoromethyl)-3,13,18-triazahexacyclo[14.7.0.0^{2,10}.0^{4,9}.0^{11,15}.0^{17,21}]tricosa-1(16),2(10),4(9),5,7,11(15),17(21),19,22-nonaene-12,14-dione]
> 20	Cn1ccc2ccc3c4[nH]c5c(CCO)cccc5c4c4c(c3c21)C(=O)NC4=O [5-(2-hydroxyethyl)-18-methyl-3,13,18-triazahexacyclo[14.7.0.0^{2,10}.0^{4,9}.0^{11,15}.0^{17,21}]tricosa-1(16),2(10),4(9),5,7,11(15),17(21),19,22-nonaene-12,14-dione]
> 20	Cc1cc2ccn(C)c2c2c3c(c4c5ccccc5[nH]c4c12)C(=O)NC3=O [18,23-dimethyl-3,13,18-triazahexacyclo[14.7.0.0^{2,10}.0^{4,9}.0^{11,15}.0^{17,21}]tricosa-1(16),2(10),4(9),5,7,11(15),17(21),19,22-nonaene-12,14-dione]
> 20	O=C1NC(=O)c2c1c1c(ccc3cc[nH]c31)c1c2c2ccccc2n1CCCO [3-(3-hydroxypropyl)-3,13,18-triazahexacyclo[14.7.0.0^{2,10}.0^{4,9}.0^{11,15}.0^{17,21}]tricosa-1(16),2(10),4(9),5,7,11(15),17(21),19,22-nonaene-12,14-dione]
> 20	CCOc1ccc2c(c1)[nH]c1c3ccc4ccn(C)c4c3c3c(c21)C(=O)NC3=O [6-ethoxy-18-methyl-3,13,18-triazahexacyclo[14.7.0.0^{2,10}.0^{4,9}.0^{11,15}.0^{17,21}]tricosa-1(16),2(10),4(9),5,7,11(15),17(21),19,22-nonaene-12,14-dione]
> 20	COC(=O)C1CCN(CCc2cccc3c2[nH]c2c4ccc5ccn(C)c5c4c4c(c32)C(=O)NC4=O)CC1 [methyl 1-(2-{18-methyl-12,14-dioxo-3,13,18-triazahexacyclo[14.7.0.0^{2,10}.0^{4,9}.0^{11,15}.0^{17,21}]tricosa-1(16),2(10),4(9),5,7,11(15),17(21),19,22-nonaen-5-yl}ethyl)piperidine-4-carboxylate]
> 20	Cn1ccc2ccc3c4[nH]c5cccc(F)c5c4c4c(c3c21)C(=O)NC4=O [8-fluoro-18-methyl-3,13,18-triazahexacyclo[14.7.0.0^{2,10}.0^{4,9}.0^{11,15}.0^{17,21}]tricosa-1(16),2(10),4(9),5,7,11(15),17(21),19,22-nonaene-12,14-dione]
> 2	O=C1NC(=O)c2c1c1c(ccc3cc[nH]c31)c1[nH]c3ccccc3c21 [3,13,18-triazahexacyclo[14.7.0.0^{2,10}.0^{4,9}.0^{11,15}.0^{17,21}]tricosa-1(16),2(10),4(9),5,7,11(15),17(21),19,22-nonaene-12,14-dione]
> 20	Cn1ccc2ccc3c4[nH]c5cccc(Br)c5c4c4c(c3c21)C(=O)NC4=O [8-bromo-18-methyl-3,13,18-triazahexacyclo[14.7.0.0^{2,10}.0^{4,9}.0^{11,15}.0^{17,21}]tricosa-1(16),2(10),4(9),5,7,11(15),17(21),19,22-nonaene-12,14-dione]
> 20	Cn1ccc2ccc3c4[nH]c5cc(C#N)ccc5c4c4c(c3c21)C(=O)NC4=O [18-methyl-12,14-dioxo-3,13,18-triazahexacyclo[14.7.0.0^{2,10}.0^{4,9}.0^{11,15}.0^{17,21}]tricosa-1(16),2(10),4(9),5,7,11(15),17(21),19,22-nonaene-6-carbonitrile]
> 2	Cn1ccc2ccc3c(c4c(c5c6ccccc6n(CCCO)c35)C(=O)NC4=O)c21 [3-(3-hydroxypropyl)-18-methyl-3,13,18-triazahexacyclo[14.7.0.0^{2,10}.0^{4,9}.0^{11,15}.0^{17,21}]tricosa-1(16),2(10),4(9),5,7,11(15),17(21),19,22-nonaene-12,14-dione]
> 20	Cn1ccc2ccc3c4[nH]c5c(CCN6CCSCC6)cccc5c4c4c(c3c21)C(=O)NC4=O [18-methyl-5-[2-(thiomorpholin-4-yl)ethyl]-3,13,18-triazahexacyclo[14.7.0.0^{2,10}.0^{4,9}.0^{11,15}.0^{17,21}]tricosa-1(16),2(10),4(9),5,7,11(15),17(21),19,22-nonaene-12,14-dione]
> 20	Cn1ccc2ccc3c4[nH]c5ccccc5c4c4c(c3c21)C(=O)NC4=O [18-methyl-3,13,18-triazahexacyclo[14.7.0.0^{2,10}.0^{4,9}.0^{11,15}.0^{17,21}]tricosa-1(16),2(10),4(9),5,7,11(15),17(21),19,22-nonaene-12,14-dione]
> 20	COc1cccc2c1[nH]c1c3ccc4ccn(C)c4c3c3c(c21)C(=O)NC3=O [5-methoxy-18-methyl-3,13,18-triazahexacyclo[14.7.0.0^{2,10}.0^{4,9}.0^{11,15}.0^{17,21}]tricosa-1(16),2(10),4(9),5,7,11(15),17(21),19,22-nonaene-12,14-dione]
> 20	Cn1ccc2cc(F)c3c4[nH]c5ccccc5c4c4c(c3c21)C(=O)NC4=O [23-fluoro-18-methyl-3,13,18-triazahexacyclo[14.7.0.0^{2,10}.0^{4,9}.0^{11,15}.0^{17,21}]tricosa-1(16),2(10),4(9),5,7,11(15),17(21),19,22-nonaene-12,14-dione]
> 20	Cn1ccc2ccc3c4[nH]c5cc(F)ccc5c4c4c(c3c21)C(=O)NC4=O [6-fluoro-18-methyl-3,13,18-triazahexacyclo[14.7.0.0^{2,10}.0^{4,9}.0^{11,15}.0^{17,21}]tricosa-1(16),2(10),4(9),5,7,11(15),17(21),19,22-nonaene-12,14-dione]
> 20	Cc1cc2ccn(C)c2c2c3c(c4c5ccc(F)cc5[nH]c4c12)C(=O)NC3=O [6-fluoro-18,23-dimethyl-3,13,18-triazahexacyclo[14.7.0.0^{2,10}.0^{4,9}.0^{11,15}.0^{17,21}]tricosa-1(16),2(10),4(9),5,7,11(15),17(21),19,22-nonaene-12,14-dione]
> 20	Cn1ccc2ccc3c4[nH]c5c(CCCO)cccc5c4c4c(c3c21)C(=O)NC4=O [5-(3-hydroxypropyl)-18-methyl-3,13,18-triazahexacyclo[14.7.0.0^{2,10}.0^{4,9}.0^{11,15}.0^{17,21}]tricosa-1(16),2(10),4(9),5,7,11(15),17(21),19,22-nonaene-12,14-dione]
> 20	Cn1ccc2ccc3c4[nH]c5ccc(F)cc5c4c4c(c3c21)C(=O)NC4=O [7-fluoro-18-methyl-3,13,18-triazahexacyclo[14.7.0.0^{2,10}.0^{4,9}.0^{11,15}.0^{17,21}]tricosa-1(16),2(10),4(9),5,7,11(15),17(21),19,22-nonaene-12,14-dione]
> 20	COc1ccc2[nH]c3c4ccc5ccn(C)c5c4c4c(c3c2c1)C(=O)NC4=O [7-methoxy-18-methyl-3,13,18-triazahexacyclo[14.7.0.0^{2,10}.0^{4,9}.0^{11,15}.0^{17,21}]tricosa-1(16),2(10),4(9),5,7,11(15),17(21),19,22-nonaene-12,14-dione]
> 20	Cn1ccc2ccc3c4[nH]c5cc(Br)ccc5c4c4c(c3c21)C(=O)NC4=O [6-bromo-18-methyl-3,13,18-triazahexacyclo[14.7.0.0^{2,10}.0^{4,9}.0^{11,15}.0^{17,21}]tricosa-1(16),2(10),4(9),5,7,11(15),17(21),19,22-nonaene-12,14-dione]
> 20	COc1ccc2c(c1)[nH]c1c2c2c(c3c1c(C)cc1ccn(C)c13)C(=O)NC2=O [6-methoxy-18,23-dimethyl-3,13,18-triazahexacyclo[14.7.0.0^{2,10}.0^{4,9}.0^{11,15}.0^{17,21}]tricosa-1(16),2(10),4(9),5,7,11(15),17(21),19,22-nonaene-12,14-dione]
> 20	Cn1ccc2ccc3c4[nH]c5c(CCCN6CCOCC6)cccc5c4c4c(c3c21)C(=O)NC4=O [18-methyl-5-[3-(morpholin-4-yl)propyl]-3,13,18-triazahexacyclo[14.7.0.0^{2,10}.0^{4,9}.0^{11,15}.0^{17,21}]tricosa-1(16),2(10),4(9),5,7,11(15),17(21),19,22-nonaene-12,14-dione]
> 20	Cc1ccc2c(c1)[nH]c1c3ccc4ccn(C)c4c3c3c(c21)C(=O)NC3=O [6,18-dimethyl-3,13,18-triazahexacyclo[14.7.0.0^{2,10}.0^{4,9}.0^{11,15}.0^{17,21}]tricosa-1(16),2(10),4(9),5,7,11(15),17(21),19,22-nonaene-12,14-dione]
> 20	COc1ccc2c(c1)[nH]c1c3ccc4ccn(C)c4c3c3c(c21)C(=O)NC3=O [6-methoxy-18-methyl-3,13,18-triazahexacyclo[14.7.0.0^{2,10}.0^{4,9}.0^{11,15}.0^{17,21}]tricosa-1(16),2(10),4(9),5,7,11(15),17(21),19,22-nonaene-12,14-dione]
